# Source: PubChem BioAssay (NCI)
#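 GI50: concentration for 50% inhibition of growth. The concentration for full growth arrest is given as TGI.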
# Tests used:
# Experiment in all cases: inhibition of tumour cell growth, NCI panel, 384-well format
# MOLT-4 leukemia = test system: MOLT-4 leukemia
# T-47D breast = test system: T-47D breast
# NCI-H23 lung = test system: NCI-H23 lung
# SK-MEL-5 melanoma = test system: SK-MEL-5 melanoma
# ACHN renal = test system: ACHN renal
# TK-10 renal = test system: TK-10 renal
# SK-OV-3 ovarian = test system: SK-OV-3 ovarian
# UACC-257 melanoma = test system: UACC-257 melanoma
# COLO 205 colon = test system: COLO 205 colon
# MDA-MB-435 melanoma = test system: MDA-MB-435 melanoma
# 786-0 renal = test system: 786-0 renal
# A549 NSCLC = test system: A549 NSCLC
# M14 melanoma = test system: M14 melanoma
SMILES,GI50 (MOLT-4 leukemia) [µM],TGI (MOLT-4 leukemia) [µM],GI50 (T-47D breast) [µM],TGI (T-47D breast) [µM],GI50 (NCI-H23 lung) [µM],TGI (NCI-H23 lung) [µM],GI50 (SK-MEL-5 melanoma) [µM],TGI (SK-MEL-5 melanoma) [µM],GI50 (ACHN renal) [µM],TGI (ACHN renal) [µM],GI50 (TK-10 renal) [µM],TGI (TK-10 renal) [µM],GI50 (SK-OV-3 ovarian) [µM],TGI (SK-OV-3 ovarian) [µM],GI50 (UACC-257 melanoma) [µM],TGI (UACC-257 melanoma) [µM],GI50 (COLO 205 colon) [µM],TGI (COLO 205 colon) [µM],GI50 (MDA-MB-435 melanoma) [µM],TGI (MDA-MB-435 melanoma) [µM],other results
Cc1ncsc1-c1ccc(CNC(=O)[C@@H]2C[C@@H](O)CN2C(=O)[C@@H](NC(=O)C2(C#N)CC2)C(C)(C)C)cc1,> 100,> 100,> 100,> 100,> 100,> 100,> 100,> 100,> 100,> 100,> 100,> 100,> 100,> 100,> 100,> 100,> 100,> 100,> 100,> 100,GI50 (786-0 renal): > 100 µM; TGI (786-0 renal): > 100 µM; GI50 (A549 NSCLC): > 100 µM; TGI (A549 NSCLC): > 100 µM; GI50 (M14 melanoma): > 100 µM; TGI (M14 melanoma): > 100 µM
O=C(NCc1ccncc1)C12CC3CC(C1)CC(c1ccc(Cl)cc1)(C3)C2,4.37,14.7,9.72,23,11.9,24.6,8.68,21.2,15.1,28.6,14.2,27.4,16,29.6,13.7,26.7,13.2,26.1,16.5,30.2,GI50 (786-0 renal): 13.4 µM; TGI (786-0 renal): 26.3 µM; GI50 (A549 NSCLC): 13.6 µM; TGI (A549 NSCLC): 26.7 µM; GI50 (M14 melanoma): 17.8 µM; TGI (M14 melanoma): 31.7 µM
